Experiments:
[1] = Acrylamide quenching studies (aggregation in aqueous medium); assay type: physicochemical; conditions: acrylamide quenching of tyrosine fluorescence
Description: The aggregation of molecules in aqueous medium, as a result of poor solubility, for example, is a critical parameter in pharmacology. […] For this purpose, acrylamide quenching studies were performed (Lakowicz J. R 1999. Principles of Fluorescence spectroscopy, Second Edition ed., Kluwer Academic/Plenum Publishers, New York; Coutinho A and Prieto M. 1993. Ribonuclease T1 and alcohol dehydrogenase fluorescence quenching by acrylamide: A laboratory experiment for undergraduate students J. Chem. Education, 70: 425-428). Acrylamide is an aqueous quencher of tyrosine fluorescence. When fluorescent peptides aggregate, the phenolic groups tend to cluster and remain inaccessible to hydrophilic molecules. Conversely, when no aggregation occurs, all tyrosine residues are exposed to the solvent and, therefore, accessible to the contact and quenching by acrilamide. […] The fluorescence spectra were not concentration-dependent (not shown) and there was a linear dependence of fluorescence intensity on concentration (not shown).

rats [2] = assay: Comparison with morphine, behavioural nociception tests and behaviour observation; assay type: in vivo, rat; conditions: i.p.
Description: (§1) In vivo behavioural anti-nociception tests were carried out in rats (Wister, male). Unless otherwise stated, compounds were administered by intra-peritoneal (i.p.) injection. For most assays, the Tail Flick and the Hot Plate tests were used.
The analgesic potential of KTP-NH2 was also verified by comparison with well-known, widely-used analgesic molecules: ibuprofen and morphine.
From FIG. 12 it is possible to observe that the efficacy of 3 mg/100 g of KTP-NH2 is similar to that observed with 0.5 mg/100 g dose of morphine.

rats [3] = assay: Formalin test (paw jerks); assay type: in vivo, rat; conditions: acute and tonic-chronic phases; i.p. 10 min before 5% formalin s.c.
Source text: The formalin test was introduced as a model of tonic pain in 1977 (Dubuisson D., Dennis S. G. 1977. The formalin test: a quantitative study of the analgesic effect of morphine, meperidine and brain stem stimulation in rats and cats. Pain; 4:74-161). In rats, formalin generates an initial phase of activity (phase 1, acute), a quiescent interphase, and a second phase of activity (phase 2, tonic/chronic), and this is seen with spontaneous behaviors, firing of afferent neurons, and activity in dorsal horn neurons. Both active phases involve ongoing peripheral afferent neural activity; inflammation contributes to phase 2 activity and the interphase results from active inhibition. Within the spinal cord, formalin increases c-fos expression in neurons and causes activation of microglia, and these may contribute more prominently to longer term changes.
We performed the formalin test due to its validity as a model to study central sensitization events at the spinal level after peripheral inflammatory states. The standard two types of nociception were analyzed; the short-lasting nociception caused by a direct effect on nociceptors followed by a long-lasting nociception due to inflammation. KTP-NH2 was administered i.p. 10 min previous to formalin injection. […] The paw jerks were videotaped and measured both in the acute and in the tonic-chronic phases. […]

rats (Wister, male) [4] = assay: Increasing-temperature Hot Plate test; assay type: in vivo, rat
Description: as §1
The hot-plate test (Eddy N. B and Leimbach D. 1953. Synthetic analgesics II. Dithienylbutenyl and dithienylbutylamines J. Pharmacol. Exp. Ther. 45: 339) evaluates a supraspinally integrated response in the form of thermal pain reflexes due to footpad contact with a heated surface. During the experiments, the animal is confined in a removable clear acrylic compartment where the latency time to the first hind paw or/and jumping responses are measured. […] The response is the licking of the hindpaw, and the corresponding plate temperature represents the recorded nociceptive end-point. The advantage of Increasing-Temperature Hot-Plate test over the standard constant-temperature hot-plate test is the higher sensitivity and the lack of influences of pre-exposure to the hot-plate before testing. Animal reaction temperature is a measurement of animal resistance to pain and is used to measure efficacy of analgesics.

Plasma stability = assay type: in vitro ADME, human; conditions: after 1 h incubation
Source text: Drugs are exposed in plasma to enzymatic processes (proteinases, esterases), they can undergo intramolecular rearrangement or bind irreversibly (covalently) to proteins. Compounds which are not stable in plasma have inherent liability as drug candidates, as they are less capable to reach a sufficient concentration at their site of pharmacological activity.

[5] = Plasma serum stability of analogues; assay type: in vitro ADME; conditions: Human Serum; test concentration 400 uM; 1-hour incubation; read-out: Mean Parent Remaining (%)
Description: These analogues were tested for plasma serum stability, in comparison with KTP-NH2.

[6] = Metabolic stability in human liver microsomal preparation; assay type: in vitro ADME; conditions: liver microsomes; 1-hour incubation with human liver microsomal preparation; read-out: compound remained
Source text: Many compounds can never become a drug because they are rapidly metabolized in the liver. It is important to confirm that metabolic stability is adequate to the desired distribution of compound throughout the body.

rats (Wister, male) [7] = assay: Antioxidant capacity in plasma (ACW, ACL); assay type: in vivo, rat; conditions: i.p. once a day 3.23 mg/100 g for seven days
Description: The toxicological studies were carried out with rats (Wister, male) injected i.p. once a day with 3.23 mg/100 g body mass during seven days.
Metabolization of KTP-NH2 in the organism might lead to an increase in its metabolite products and to the subsequent production of reactive oxygen species (ROS). As increased ROS levels are potentially harmful, KTP-NH2 potential to induce changes in antioxidant capacities in the plasma of animals was explored. Total antioxidant capacity of lipid-soluble (ACL) and water-soluble (ACW) constituents were determined.

c-fos = assay: Formalin-induced c-fos expression in spinal cord dorsal horn (immunohistochemistry); assay type: in vivo, rat; conditions: formalin-treated rats

With `N=C(N)NCCC[C@H](NC(=O)[C@@H](N)Cc1ccc(O)cc1)C(N)=O` [KTP-NH2, L-Tyr-L-Arg-NH2] the “aggregation / solubility in aqueous medium” value [1] was “favourable solubility properties”, the “analgesic efficacy compared with morphine” value (rats [2]; 3 mg/100 g KTP-NH2 vs 0.5 mg/100 g morphine) was “similar” and the “alterations in behavior (secondary effects)” value (rats [2]; rats) was “no such secondary effects were observed”. The number of paw-jerks (rats [3]) was “reduced significantly”, the “analgesic effect compared with ibuprofen” value (rats (Wister, male) [4]; Hot Plate, i.p.) was “more pronounced effect” and the “duration of anti-nociceptive response” value (rats (Wister, male) [4]; Hot Plate, i.p., rat) was 30 min. For the same compound, the “smallest dose tested with statistical significance” value (rats (Wister, male) [4]; Hot Plate, i.p., rat) was 1.67 mg for 100 g of body mass, the “analgesic efficacy after oral administration” value (rats (Wister, male) [4]; Hot Plate, oral, rat) was “slight delay of the onset of effect” and the “effect in hot plate test” value (rats (Wister, male) [4]; i.p., rat) was “clear anti-nociceptive response”. The “stability in human plasma” value (Plasma stability) was 14-21%, the remaining at 1 h, 400 uM [5] was 14% and the remaining at 1 h [6] was 93%. For the same compound, the “basal antioxidant capacity in plasma (ACL, ACW)” value (rats (Wister, male) [7]) was “does not induce significant modifications” and the “formalin-induced c-fos protein expression in dorsal horn” value (c-fos) was “significantly decreased”.

Source: patent US20110082087A1, “COMPOUNDS FOR TREATING PAIN” (Edificio ICAT, priority 2008, published 2011)
